{"source": "paper PMC10331583", "about": "“Control of fibrosis with enhanced safety via asymmetric inhibition of prolyl‐tRNA synthetase 1” (EMBO Molecular Medicine, 2023)", "key": {"[1]": {"test_system": "TNT Quick Coupled Transcription/Translation System (luciferase synthesis)", "format": "biochemical"}, "WI‐26 VA4 cells [2]": {"test_system": "WI‐26 VA4 cells", "test": "Puromycin incorporation assay", "format": "cell-based, human", "settings": "for activity at 0.001 µM: WI26VA4, 1 nM; for activity at 0.01 µM: WI26VA4, 10 nM; for activity at 0.03 µM: WI26VA4, 30 nM; for activity at 0.1 µM: WI26VA4, 100 nM; for activity at 1 µM: WI26VA4, 1000 nM; for activity at 3 µM: WI26VA4, 3000 nM", "experimental": "After being rinsed with cold PBS twice, the cells were collected and resuspended in 200 μl of the carbonate bicarbonate buffer (Sigma Aldrich, C3041‐50CAP) with protease inhibitor. The cell lysates were obtained by sonication and centrifugation at 20,000 g for 15 min at 4°C. After protein quantification using a Pierce™ BCA Protein Assay Kit (Thermo Fisher Scientific, 23225), 400 ng of the proteins was coated to ELISA plates for 18 h at 4°C. […] The plates were rinsed with the washing buffer for three times after each antibody incubation step. […] The amount of puromycin incorporated in proteins was determined by measuring the absorbance at 450 nm (reference wavelength at 620 nm). Experimental values marked in red with strikethrough text in the Figure Source Data file were excluded from the analysis. These values were determined by considering the values of biological and technical replicates under the same condition, as well as the values at the former and later chemical concentrations."}, "[3]": {"test": "CellTiter‐Glo assay (cytotoxicity)", "settings": "human, WI-26 VA4 cells, CC50 (CellTiter-Glo), 72 h (Fig 5B)"}, "WI‐26 VA4 cells [4]": {"test_system": "WI‐26 VA4 cells", "test": "CellTiter‐Glo assay (cytotoxicity)", "settings": "Homo sapiens, WI26VA4, read-out: CellTiter-Glo % of control, 1 nM; Experiment #1, replicates"}, "[5]": {"settings": "Homo sapiens, read-out: Puromycin, % of control, average"}, "[6]": {"settings": "Homo sapiens, read-out: Puromycin, % of control, single replicate"}}, "note": "pIC50: −log10 of the molar value. “And” between values parts separate entries of the source, which are not always exact repeats. Identical values can stand only once. Like-named read-outs stand apart in the source and are kept apart here."}
{"smiles": "O=C(CC1NCCCC1O)Cn1cnc2cc(Br)c(Cl)cc2c1=O", "note": "(stereo not shown) [HF, Halofuginone, reference compound]", "values": [{"measurement": "TNT-luciferase LogIC50 (best-fit value)", "setting": "[1]", "result": 2.211}, {"measurement": "TNT-luciferase % of control, average", "setting": "[1]; 6 nM", "result": "106.95 % of control"}, {"measurement": "TNT-luciferase % of control", "setting": "[1]; 6 nM, 0.006 µM", "result": "109.98 % of control and 110.97 % of control and 123.24 % of control and 104.46 % of control and 101.11 % of control and 91.92 % of control"}, {"measurement": "TNT-luciferase % of control, average", "setting": "[1]; 10 nM", "result": "114.54 % of control"}, {"measurement": "TNT-luciferase % of control", "setting": "[1]; 10 nM, 0.01 µM", "result": "118.82 % of control and 112.93 % of control and 98.69 % of control and 124.51 % of control and 116.16 % of control"}, {"measurement": "TNT-luciferase % of control, average", "setting": "[1]; 20 nM", "result": "104.66 % of control"}, {"measurement": "TNT-luciferase % of control", "setting": "[1]; 20 nM, 0.02 µM", "result": "102.13 % of control and 100.65 % of control and 102.62 % of control and 110.31 % of control and 109.47 % of control and 102.79 % of control"}, {"measurement": "TNT-luciferase % of control, average", "setting": "[1]; 36 nM", "result": "110.74 % of control"}, {"measurement": "TNT-luciferase % of control", "setting": "[1]; 36 nM, 0.036 µM", "result": "113.42 % of control and 108.02 % of control and 129.62 % of control and 107.80 % of control and 102.79 % of control"}, {"measurement": "TNT-luciferase % of control, average", "setting": "[1]; 60 nM", "result": "109.84 % of control"}, {"measurement": "TNT-luciferase % of control", "setting": "[1]; 60 nM, 0.06 µM", "result": "112.44 % of control and 104.58 % of control and 103.60 % of control and 118.66 % of control and 113.65 % of control and 106.13 % of control"}, {"measurement": "TNT-luciferase % of control, average", "setting": "[1]; 100 nM", "result": "95.21 % of control"}, {"measurement": "TNT-luciferase % of control", "setting": "[1]; 100 nM, 0.1 µM", "result": "67.76 % of control and 70.21 % of control and 67.27 % of control and 122.01 % of control and 126.18 % of control and 117.83 % of control"}, {"measurement": "TNT-luciferase % of control, average", "setting": "[1]; 200 nM", "result": "33.45 % of control"}, {"measurement": "TNT-luciferase % of control, average", "setting": "[1]; 360 nM", "result": "4.01 % of control"}, {"measurement": "TNT-luciferase % of control, average", "setting": "[1]; 600 nM", "result": "0.26 % of control"}, {"measurement": "TNT-luciferase % of control, average", "setting": "[1]; 1000 nM", "result": "0.09 % of control"}, {"measurement": "TNT-luciferase % of control, average", "setting": "[1]; 2000 nM", "result": "0.02 % of control"}, {"measurement": "TNT-luciferase % of control", "setting": "[1]; 2000 nM, 2 µM", "result": "0.04 % of control"}, {"measurement": "pIC50", "setting": "[1]; read-out: TNT-luciferase IC50 (best-fit value)", "result": 6.79}, {"measurement": "Puromycin, % of control, single replicate", "setting": "WI‐26 VA4 cells [2]; 3 nM, 0.003 µM", "result": "87.66 % of control and 110.89 % of control and 102.72 % of control and 101.10 % of control and 86.71 % of control and 84.36 % of control and 98.41 % of control and 95.09 % of control and 95.08 % of control and 108.41 % of control and 105.39 % of control and 104.60 % of control"}, {"measurement": "Puromycin, % of control, single replicate", "setting": "WI‐26 VA4 cells [2]; 10 nM, 0.01 µM", "result": "100.34 % of control and 96.77 % of control and 97.76 % of control and 87.44 % of control and 83.58 % of control and 96.23 % of control and 94.53 % of control"}, {"measurement": "Puromycin, % of control, single replicate", "setting": "WI‐26 VA4 cells [2]; 30 nM, 0.03 µM", "result": "113.27 % of control and 109.87 % of control and 110.26 % of control and 116.66 % of control and 114.17 % of control and 107.05 % of control and 108.24 % of control and 108.11 % of control and 111.56 % of control and 111.23 % of control and 110.22 % of control"}, {"measurement": "Puromycin, % of control, single replicate", "setting": "WI‐26 VA4 cells [2]; 100 nM, 0.1 µM", "result": "90.48 % of control and 92.59 % of control and 92.61 % of control and 84.84 % of control and 84.75 % of control and 85.14 % of control and 85.25 % of control and 85.34 % of control and 84.22 % of control"}, {"measurement": "Puromycin, % of control, single replicate", "setting": "WI‐26 VA4 cells [2]; 300 nM, 0.3 µM", "result": "10.84 % of control and 35.41 % of control and 34.99 % of control and 10.87 % of control and 10.33 % of control and 31.26 % of control and 32.35 % of control and 31.90 % of control and 32.62 % of control and 32.23 % of control and 32.21 % of control"}, {"measurement": "Puromycin, % of control, single replicate", "setting": "WI‐26 VA4 cells [2]; 3000 nM, 3 µM", "result": "3.08 % of control (2×) and 2.96 % of control and 3.28 % of control and 2.21 % of control and 2.18 % of control and 2.60 % of control and 2.20 % of control and 3.16 % of control and 3.05 % of control"}, {"measurement": "Puromycin, % of control, single replicate", "setting": "WI‐26 VA4 cells [2]; 10000 nM, 10 µM", "result": "3.89 % of control and 1.98 % of control and 2.07 % of control and 2.17 % of control and 4.12 % of control and 4.05 % of control and 1.27 % of control and 1.14 % of control and 1.39 % of control and 2.12 % of control and 2.04 % of control"}, {"measurement": "Puromycin, % of control, single replicate", "setting": "WI‐26 VA4 cells [2]; 30000 nM, 30 µM", "result": "2.04 % of control and 1.64 % of control and 1.93 % of control and 3.75 % of control and 1.32 % of control and 1.84 % of control and 1.82 % of control and 1.41 % of control"}, {"measurement": "activity at 0.001 µM", "setting": "WI‐26 VA4 cells [2]; [5]", "result": 102, "unit": "%"}, {"measurement": "activity at 0.001 µM", "setting": "WI‐26 VA4 cells [2]; [6]", "result": 101, "unit": "%"}, {"measurement": "activity at 0.003 µM", "setting": "WI‐26 VA4 cells [2]; Homo sapiens, WI26VA4, 3 nM, read-out: Puromycin, % of control, average", "result": 98.4, "unit": "%"}, {"measurement": "activity at 0.01 µM", "setting": "WI‐26 VA4 cells [2]; [5]", "result": 94.8, "unit": "%"}, {"measurement": "activity at 0.01 µM", "setting": "WI‐26 VA4 cells [2]; [6]", "result": 86.6, "unit": "%"}, {"measurement": "activity at 0.03 µM", "setting": "WI‐26 VA4 cells [2]; [5]", "result": 111, "unit": "%"}, {"measurement": "activity at 0.03 µM", "setting": "WI‐26 VA4 cells [2]; [6]", "result": 117, "unit": "%"}, {"measurement": "activity at 0.1 µM", "setting": "WI‐26 VA4 cells [2]; [5]", "result": 88, "unit": "%"}, {"measurement": "activity at 0.1 µM", "setting": "WI‐26 VA4 cells [2]; [6]", "result": 94.6, "unit": "%"}, {"measurement": "activity at 0.3 µM", "setting": "WI‐26 VA4 cells [2]; Homo sapiens, WI26VA4, 300 nM, read-out: Puromycin, % of control, average", "result": 26.8, "unit": "%"}, {"measurement": "activity at 1 µM", "setting": "WI‐26 VA4 cells [2]; [5]", "result": 3.03, "unit": "%"}, {"measurement": "activity at 1 µM", "setting": "WI‐26 VA4 cells [2]; [6]", "result": 2.13, "unit": "%"}, {"measurement": "activity at 3 µM", "setting": "WI‐26 VA4 cells [2]; [5]", "result": 2.66, "unit": "%"}, {"measurement": "activity at 3 µM", "setting": "WI‐26 VA4 cells [2]; [6]", "result": 2.13, "unit": "%"}, {"measurement": "activity at 10 µM", "setting": "WI‐26 VA4 cells [2]; Homo sapiens, WI26VA4, 10000 nM, read-out: Puromycin, % of control, average", "result": 2.36, "unit": "%"}, {"measurement": "activity at 30 µM", "setting": "WI‐26 VA4 cells [2]; Homo sapiens, WI26VA4, 30000 nM, read-out: Puromycin, % of control, average", "result": 1.87, "unit": "%"}, {"measurement": "pIC50", "setting": "WI‐26 VA4 cells [2]; Homo sapiens, WI26VA4, log(inhibitor) vs. response, variable slope (four parameters), read-out: Puromycin, IC50 (best-fit value)", "result": 6.70}, {"measurement": "Puromycin, HillSlope (best-fit value)", "setting": "WI‐26 VA4 cells [2]; log(inhibitor) vs. response, variable slope (four parameters)", "result": -2.795}, {"measurement": "Puromycin, LogIC50 (best-fit value)", "setting": "WI‐26 VA4 cells [2]; log(inhibitor) vs. response, variable slope (four parameters), concentration in nM", "result": 2.301}, {"measurement": "CC50 at 72 h", "setting": "[3]", "result": 51, "unit": "nM"}, {"measurement": "activity at 0.001 µM", "setting": "WI‐26 VA4 cells [4]", "result": 106, "unit": "%"}]}
